Experimental data as given in ChEMBL document CHEMBL1201862, “PubChem BioAssay data set” (2004).
One block for each molecule: values may come before it. Calls of active or inactive are those of the source.

Assays:
[1] = THP-1 cell cytotoxicity, dose response, cytotoxicity control for Vif-APOBEC3G degradation inhibitor project, THP-1 cells (AID 1117359); format: functional; conditions: Human immunodeficiency virus 1, THP-1
[2] = molecular target: Mothers against decapentaplegic homolog 3 (Homo sapiens, UniProt P84022); experiment: SMAD3 transcription factor inhibitors, dose response (AID 715); format: functional
Mothers against decapentaplegic homolog 3, sequence (P84022 whole entry): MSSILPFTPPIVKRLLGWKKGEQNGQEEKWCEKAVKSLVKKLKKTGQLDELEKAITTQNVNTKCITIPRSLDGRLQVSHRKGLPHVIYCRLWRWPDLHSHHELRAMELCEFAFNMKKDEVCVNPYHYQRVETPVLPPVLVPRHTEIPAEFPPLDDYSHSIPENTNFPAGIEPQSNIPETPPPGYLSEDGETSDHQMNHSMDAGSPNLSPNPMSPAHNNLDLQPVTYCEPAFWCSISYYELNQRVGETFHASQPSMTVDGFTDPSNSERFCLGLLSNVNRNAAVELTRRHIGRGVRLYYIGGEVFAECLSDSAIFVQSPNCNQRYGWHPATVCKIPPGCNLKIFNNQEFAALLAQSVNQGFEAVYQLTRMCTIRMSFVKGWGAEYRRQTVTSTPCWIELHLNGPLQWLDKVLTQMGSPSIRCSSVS

[3] = molecular target: Intestinal-type alkaline phosphatase (Homo sapiens, UniProt P09923); experiment: Dose Response confirmation of uHTS hits from a small molecule inhibitors of human intestinal alkaline phosphatase via a luminescent assay. [Related pubchem assays (depositor defined):AID2544, AID2574]; format: functional
Intestinal-type alkaline phosphatase, sequence (P09923 whole entry): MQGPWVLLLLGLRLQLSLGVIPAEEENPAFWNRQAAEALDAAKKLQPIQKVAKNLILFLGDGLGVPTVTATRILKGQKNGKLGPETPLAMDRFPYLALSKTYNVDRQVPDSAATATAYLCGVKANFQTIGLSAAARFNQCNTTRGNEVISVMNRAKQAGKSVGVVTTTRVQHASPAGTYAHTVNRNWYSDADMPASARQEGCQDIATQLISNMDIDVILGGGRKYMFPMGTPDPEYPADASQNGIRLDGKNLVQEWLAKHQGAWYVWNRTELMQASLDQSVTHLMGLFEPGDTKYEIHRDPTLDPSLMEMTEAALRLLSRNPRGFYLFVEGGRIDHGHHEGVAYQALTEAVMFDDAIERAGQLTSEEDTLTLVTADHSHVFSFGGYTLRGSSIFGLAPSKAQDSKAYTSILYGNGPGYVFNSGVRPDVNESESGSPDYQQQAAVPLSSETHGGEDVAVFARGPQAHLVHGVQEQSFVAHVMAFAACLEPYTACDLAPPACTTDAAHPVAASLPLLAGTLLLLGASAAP

[4] = molecular target: T1, Sentrin-specific protease 8 (Homo sapiens, UniProt Q96LD8); format: functional
T1 sequence (Q96LD8 whole entry): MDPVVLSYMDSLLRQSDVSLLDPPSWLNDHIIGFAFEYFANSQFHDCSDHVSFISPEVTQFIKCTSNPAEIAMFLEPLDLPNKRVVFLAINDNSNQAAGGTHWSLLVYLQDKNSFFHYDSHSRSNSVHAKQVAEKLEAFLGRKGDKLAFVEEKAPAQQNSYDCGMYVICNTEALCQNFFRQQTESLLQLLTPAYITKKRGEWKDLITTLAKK

[5] = molecular target: T1, Sentrin-specific protease 8; format: functional; remark: listed apart in the source
Caspase-3 = molecular target: T2, Caspase-3 (Homo sapiens, UniProt P42574); experiment: Dose-response confirmation of uHTS inhibitor hits of Sentrin-Specific Protease 8 in a Caspase-3 Fluorescence assay.; format: functional
T2 sequence (P42574 whole entry): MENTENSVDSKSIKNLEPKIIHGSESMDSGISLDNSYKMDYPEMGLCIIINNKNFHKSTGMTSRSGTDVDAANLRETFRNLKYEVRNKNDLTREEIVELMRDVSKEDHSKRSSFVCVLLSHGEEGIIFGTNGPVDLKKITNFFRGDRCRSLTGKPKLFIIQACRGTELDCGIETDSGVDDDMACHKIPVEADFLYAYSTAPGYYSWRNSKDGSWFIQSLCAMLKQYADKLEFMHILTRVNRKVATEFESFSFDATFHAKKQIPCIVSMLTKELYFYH

[6] = molecular target: T3, Histone-lysine N-methyltransferase NSD2 (Homo sapiens, UniProt O96028); format: biochemical
T3 sequence (O96028 whole entry): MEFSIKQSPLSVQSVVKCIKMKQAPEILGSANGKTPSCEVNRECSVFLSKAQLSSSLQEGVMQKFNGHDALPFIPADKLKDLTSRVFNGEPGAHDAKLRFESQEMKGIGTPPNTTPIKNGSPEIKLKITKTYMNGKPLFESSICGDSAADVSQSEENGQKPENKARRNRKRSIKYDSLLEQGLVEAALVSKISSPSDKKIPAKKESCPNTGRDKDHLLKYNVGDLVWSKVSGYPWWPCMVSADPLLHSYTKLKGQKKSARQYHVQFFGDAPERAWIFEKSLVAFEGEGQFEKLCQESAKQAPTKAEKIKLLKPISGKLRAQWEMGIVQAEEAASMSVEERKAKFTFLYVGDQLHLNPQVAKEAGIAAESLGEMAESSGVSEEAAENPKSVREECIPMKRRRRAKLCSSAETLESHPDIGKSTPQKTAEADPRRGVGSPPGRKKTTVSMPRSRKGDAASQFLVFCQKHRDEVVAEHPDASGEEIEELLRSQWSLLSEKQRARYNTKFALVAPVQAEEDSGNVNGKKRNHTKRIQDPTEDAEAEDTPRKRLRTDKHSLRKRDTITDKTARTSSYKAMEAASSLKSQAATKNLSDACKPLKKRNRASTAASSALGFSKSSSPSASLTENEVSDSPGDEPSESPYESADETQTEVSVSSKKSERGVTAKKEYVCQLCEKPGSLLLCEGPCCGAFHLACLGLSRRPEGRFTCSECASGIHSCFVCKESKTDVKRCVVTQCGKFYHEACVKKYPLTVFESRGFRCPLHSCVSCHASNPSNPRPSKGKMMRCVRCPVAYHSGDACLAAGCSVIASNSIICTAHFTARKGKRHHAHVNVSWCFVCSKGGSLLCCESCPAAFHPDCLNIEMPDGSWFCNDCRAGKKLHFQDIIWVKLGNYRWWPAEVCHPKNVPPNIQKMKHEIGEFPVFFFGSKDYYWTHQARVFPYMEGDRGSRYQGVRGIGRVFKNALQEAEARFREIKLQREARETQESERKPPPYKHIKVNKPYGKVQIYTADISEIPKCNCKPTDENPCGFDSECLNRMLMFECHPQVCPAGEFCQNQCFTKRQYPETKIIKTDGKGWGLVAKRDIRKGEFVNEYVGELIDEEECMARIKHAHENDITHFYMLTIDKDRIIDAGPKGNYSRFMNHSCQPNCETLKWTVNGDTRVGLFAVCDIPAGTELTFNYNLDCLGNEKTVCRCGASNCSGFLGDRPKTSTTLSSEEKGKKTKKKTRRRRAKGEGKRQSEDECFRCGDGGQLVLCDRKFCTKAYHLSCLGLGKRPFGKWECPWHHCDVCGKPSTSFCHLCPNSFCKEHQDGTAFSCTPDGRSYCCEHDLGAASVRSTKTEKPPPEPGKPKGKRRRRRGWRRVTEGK

Structure (SMILES): Oc1ccc(/N=C/c2ccc(OCc3ccccc3)cc2)cc1
CC50 [1]: > 40 µM (active)

Structure (SMILES): Nc1c(N2CCCC2)cc(Cl)c2nonc12
IC50 [2]: 18.3 µM (active)
IC50 [3]: > 100 µM (inactive)

IC50 (Caspase-3): 20.9 µM (active)
AC50 [6]: 2.56 µM (active)
Structure (SMILES): O=C(NNc1cc(N2CCOCC2)nc(N2CCOCC2)n1)c1ccc([N+](=O)[O-])cc1
IC50 [4]: 2.86 µM (active)
IC50 [5]: 3.2 µM (active)
